# Assay results: patent US20240353338A1 (priority 2023, published 2024)
# Experiments:
# streptavidin = streptavidin (Streptomyces avidinii, UniProt P22629); type: binding
# SARS-CoV-2 M^pro = SARS-CoV-2 M^pro (Severe acute respiratory syndrome coronavirus 2, UniProt P0DTD1); assay: TRIP screening of M^pro inhibitor binding and binding strength/affinity; conditions: 1 μM vs 5 μM M^pro mixes
# transthyretin (TTR) = target: T1, transthyretin (TTR) (Homo sapiens, UniProt P02766); type: binding
# T1 construct: purchased Sigma Aldrich P1742
# Chain of streptavidin (P22629 37-163): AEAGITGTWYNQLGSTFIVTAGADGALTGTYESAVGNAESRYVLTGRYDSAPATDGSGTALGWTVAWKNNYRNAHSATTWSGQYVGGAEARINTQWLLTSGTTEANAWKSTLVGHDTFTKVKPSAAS
smiles,measurement,setting,value
O=C(O)CCCC[C@@H]1SC[C@@H]2NC(=O)N[C@@H]21 [biotin],binding of biotin to streptavidin (Trp N-H band shift 877 to 870 cm^-1),streptavidin,strong hydrogen bonding occurred
Nc1nnc(Sc2ncc([N+](=O)[O-])s2)s1 [Halicin],affinity for monomer M^pro versus dimer / dimer-monomer M^pro mix,SARS-CoV-2 M^pro,higher affinity for binding monomeric M^pro
"O=[N+]([O-])c1ccc(O)c([N+](=O)[O-])c1 [DNP, 2,4 dinitrophenol]",binding between DNP and TTR over time (PC2 of 1230-1350 cm^-1 region),transthyretin (TTR),enhanced over time
